Results: patent US9096538B2, “Pharmaceutical comprising PPAR agonist” (Senju Pharmaceutical Co., Ltd., priority 2005, dated 2015)

How the values were obtained:
[1] = test system: rabbit corneal epithelial cell; assay: Test Example 1: increase in cell number, cultured rabbit corneal epithelial cell (Cell Counting Kit-8); type: cell-based; details: 48 hours, no addition group = 100%, average ± standard deviation, N = 5
Method: A male rabbit (Japanese white, […] LABES Co., Ltd.) was used. The experimental animal was used according to the International Guiding Principles for Biomedical Research Involving Animals.
A corneal epithelial cell was prepared from rabbit eyeballs. A cornea was excised from isolated eyeballs, and stored in Dulbecco's phosphate buffered saline (D-PBS; Invitrogen), and this was transferred to a clean bench. The following cell preparation procedures were all performed sterilely.
The isolated corneal segment was washed with D-PBS with 1% penicillin-streptomycin (Invitrogen) added thereto three times, and was transferred to a minimum essential medium (MEM; Invitrogen). A corneal endothelial cell and a Descemet's membrane of the corneal segment immersed in MEM were peeled with a knife (Alcon) for ocular operation, and the corneal segment (corneal stroma and corneal epithelium) after peeling was transferred to MEM to which dispase II (Roche Diagnostics) had been added to 2.4 U/mL. This was incubated at 37° C. for 1 hour and, thereafter, the dispase II-treated corneal segment was transferred to MEM. The corneal epithelium of the corneal segment immersed in MEM was peeled with the knife for ocular operation, and the corneal segment residue (corneal stroma) was removed from MEM. The peeled corneal epithelial cell and the MEM containing same were recovered in a 50 mL centrifuge tube, subjected to centrifugation at 1,500 rpm for 5 minutes at room temperature. The supernatant was discarded to give a corneal epithelial cell layer. To the corneal epithelial cell layer was added 1 mL of trypsin-EDTA (Invitrogen) and, after thorough mixing, the cells were incubated at 37° C. for 5 minutes to dissociate adhesion between the cells. To this was added 9 mL of MEM containing 10% fetal bovine serum (FBS; Invitrogen) to stop the enzymatic reaction, and this was subjected again to centrifugation at room temperature and 1,500 rpm for 5 minutes to obtain the corneal epithelial cell layer. To the resulting corneal epithelial cell layer was added […] of a serum-free liquid medium for proliferating a normal rabbit corneal epithelial cell (RCGM2; Kurabo Industries LTD.) to suspend the cell, and this was seeded into a culture dish (IWAKI) for culturing a cell having a diameter of 10 cm, to which 9 mL of RCGM2 had been added. […] The culture medium was exchanged with a fresh culture medium every 48 hours until the test day.
As the test substance, the following compounds were used. • PPARα agonist: WY-14643 (Calbiochem) and fenofibrate (Sigma-Aldrich) • PPARδ agonist: L-165041 (Sigma-Aldrich)
(§1) For studying the effect of promoting cell proliferation by each test substance, a culture medium prepared by removing a mouse-derived epithelial growth factor (mEGF) attached to RCGM2, from RCGM2, was used as a basal medium, while as a positive control for confirming the effect of promoting cell proliferation, a medium with an mEGF added thereto (basal medium+10 ng/mL mEGF) was used according to instructions of an RCGM2 preparation protocol.
As a culture dish for a test of cell proliferation promotion, a 96-well culture dish for tissue culture (Corning) was used. On the day before the test, each 50 μL of 0.01% type I collagen (Nitta Gelatin Inc.) was dispensed into each well of the culture dish, and coating was performed at 4° C. until immediately before the test. On the test day, after a type I collagen solution was removed, the bottom of the culture dish was washed three times using D-PBS, and this was used in the test as a collagen-treated culture dish.
In the test, a rabbit corneal epithelial cell which had been cultured to subconfluent in a culture dish having a diameter of 10 cm was used. After the culture medium was removed, the bottom of the culture dish was washed two times using D-PBS, to this was added 1 mL of trypsin-EDTA, this was incubated at 37° C. for 5 minutes and thereby, the cell was peeled from the bottom of the culture dish. […]

[2] = test system: rabbit corneal epithelial cell; assay: Test Example 2: increase in cell number, cultured rabbit corneal epithelial cell, 120 hours (Cell Counting Kit-8); type: cell-based; details: no addition group = 100%, average ± standard deviation, N = 5
Method: A male rabbit (Japanese white, weight: about 1.5 kg, […] LABES Co., Ltd.) was used. The experimental animal was used according to the International Guiding Principles for Biomedical Research Involving Animals.
A rabbit corneal epithelial cell was prepared using the same process as that of (Test example 1).
As the test substance, the following compounds were used. • PPARδ agonist: L-165041 (Sigma-Aldrich) and GW-501516 (Alexis)
as §1
Collagen treatment of the culture dish was performed using the same process as that of (Test Example1).
In the test, a rabbit corneal epithelial cell which had been cultured to subconfluent in a culture dish having a diameter of 10 cm was used. After the culture medium was removed, the bottom of the culture dish was washed two times using D-PBS, to this was added 1 mL of trypsin-EDTA, this was incubated at 37° C. for 5 minutes and thereby, the cell was peeled from the bottom of the culture dish. After incubation, 9 mL of MEM containing 10% FBS was added to the culture dish to stop the enzymatic reaction, and this was subjected to centrifugation at room temperature and 1,500 rpm for 5 minutes to obtain a corneal epithelial cell layer. To the resulting cell was added an appropriate amount of RCGM2 to a cell concentration of 1×10^5 cells/mL to suspend the cell. Each 64 μL of this cell suspension was dispensed in each well at the cell number per bottom area (0.32 cm^2) of the collagen-treated 96-well culture dish for tissue culture of […]. […] After 24 hours from cell seeding, the culture medium was discarded, and each 100 μL of the following culture media were freshly dispensed into each well of the culture dish. • [1] Only basal medium (no addition group) • [2] Basal medium+mEGF (final concentration: 10 ng/mL; positive control group) • [3] Basal medium+L-165041 (final concentration: 0.1 μM and 1 μM) • [4] Basal medium+GW-501516 (final concentration: 0.01 μM and 0.1 μM)
The culture supernatant of each well was removed every 48 hours from exchange of the culture medium containing a test substance, and each 100 μL of the freshly prepared culture medium was dispensed into each well.

## CCCc1c(OCCCOc2ccc(OCC(=O)O)cc2)ccc(C(C)=O)c1O [L-165041, (4-(3-(4-acetyl-3-hydroxy-2-propyl)phenoxy)propoxyphenoxy)acetic acid]
[1]; 10^−6 M
  Cell proliferation (%): 182.2 ± 13.0%
[1]; 10^−7 M
  Cell proliferation (%): 163.3 ± 8.2%
[2]; 10^−6 M
  Cell proliferation (%): 198.6 ± 26.7%
[2]; 10^−7 M
  Cell proliferation (%): 242.5 ± 36.2%
